Like-named read-outs stand apart in the source and are kept apart here.
Tests used:
CDK1-CYCLIN B = CDK1-CYCLIN B (Homo sapiens, UniProt P06493); assay: CDK protein kinase inhibition by ADP-Glo assay, CDK1-CYCLIN B; format: biochemical; conditions: for IC50: ADP-Glo, 1000 μM ATP, read-out: CDK1-CYCLINB, IC50; for CDK2 Fold selectivity, CDK1: CDK2 versus CDK1
How it was run: (§1)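 Kinase/cyclin + peptide substrate + cpd + ATP (1000 μM)/MgCl2 (5 mM), HEPES pH 7.5, 22° C; quench, ADP-Glo reagent 45 min RT, detection reagent 10 min, luminescence.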

CDK2-CYCLIN E1 = CDK2-CYCLIN E1 (Homo sapiens, UniProt P24941); assay: CDK protein kinase inhibition by ADP-Glo assay, CDK2-CYCLIN E1; format: biochemical; conditions: ADP-Glo, 1000 μM ATP, read-out: CDK2-CYCLINE, IC50
How it was run: as §1

CDK4-CYCLIN D1 = CDK4-CYCLIN D1 (Homo sapiens, UniProt P11802); assay: CDK protein kinase inhibition by ADP-Glo assay, CDK4-CYCLIN D1; format: biochemical; conditions: for IC50: ADP-Glo, 1000 μM ATP, read-out: CDK4-CYCLIND1, IC50; for CDK2 Fold selectivity, CDK4: CDK2 versus CDK4
Chain of CDK4-CYCLIN D1 (P11802 whole entry): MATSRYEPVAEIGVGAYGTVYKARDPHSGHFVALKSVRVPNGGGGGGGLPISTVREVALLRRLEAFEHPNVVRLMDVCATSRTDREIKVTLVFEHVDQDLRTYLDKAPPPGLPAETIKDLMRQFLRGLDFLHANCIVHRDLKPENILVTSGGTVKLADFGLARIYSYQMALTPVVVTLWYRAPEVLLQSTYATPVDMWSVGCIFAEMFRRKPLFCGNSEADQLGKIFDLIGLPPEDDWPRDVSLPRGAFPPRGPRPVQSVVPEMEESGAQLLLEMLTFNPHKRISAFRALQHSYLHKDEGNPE
Chain of CDK4-CYCLIN D1 (P24385 whole entry partner): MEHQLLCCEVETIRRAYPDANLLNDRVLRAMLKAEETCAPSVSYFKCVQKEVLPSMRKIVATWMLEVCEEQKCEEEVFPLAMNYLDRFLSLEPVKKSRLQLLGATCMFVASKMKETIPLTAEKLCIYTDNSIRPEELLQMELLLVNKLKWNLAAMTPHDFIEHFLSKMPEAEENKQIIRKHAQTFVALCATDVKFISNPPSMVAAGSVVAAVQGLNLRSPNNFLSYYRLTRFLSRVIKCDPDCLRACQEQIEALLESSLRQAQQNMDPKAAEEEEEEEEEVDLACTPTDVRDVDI
How it was run: as §1

CDK6-CYCLIN D3 = CDK6-CYCLIN D3 (Homo sapiens, UniProt Q00534); assay: CDK protein kinase inhibition by ADP-Glo assay, CDK6-CYCLIN D3; format: biochemical; conditions: for IC50: ADP-Glo, 1000 μM ATP, read-out: CDK6-CYCLIND3, IC50; for CDK2 Fold selectivity, CDK6: CDK2 versus CDK6
Chain of CDK6-CYCLIN D3 (Q00534 whole entry): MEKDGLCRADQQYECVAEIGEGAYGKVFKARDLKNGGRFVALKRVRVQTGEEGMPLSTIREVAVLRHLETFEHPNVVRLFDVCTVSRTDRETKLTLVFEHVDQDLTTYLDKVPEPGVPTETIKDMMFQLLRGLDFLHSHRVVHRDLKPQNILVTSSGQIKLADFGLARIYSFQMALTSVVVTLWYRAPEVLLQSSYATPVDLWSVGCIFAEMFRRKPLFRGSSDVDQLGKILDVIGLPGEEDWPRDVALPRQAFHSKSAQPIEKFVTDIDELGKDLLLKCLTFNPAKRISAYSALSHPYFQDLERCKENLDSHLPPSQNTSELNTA
Chain of CDK6-CYCLIN D3 (P30281 whole entry partner): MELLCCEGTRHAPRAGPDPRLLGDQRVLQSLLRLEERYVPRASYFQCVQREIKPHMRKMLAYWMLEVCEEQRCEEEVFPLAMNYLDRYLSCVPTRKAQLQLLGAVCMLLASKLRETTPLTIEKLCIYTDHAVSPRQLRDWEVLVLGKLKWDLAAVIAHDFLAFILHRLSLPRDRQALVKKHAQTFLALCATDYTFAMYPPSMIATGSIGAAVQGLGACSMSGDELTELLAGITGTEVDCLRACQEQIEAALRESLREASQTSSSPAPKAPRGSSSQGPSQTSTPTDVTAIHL
How it was run: as §1

CDK9-CYCLIN T1 = CDK9-CYCLIN T1 (Homo sapiens, UniProt P50750); assay: CDK protein kinase inhibition by ADP-Glo assay, CDK9-CYCLIN T1; format: biochemical; conditions: for IC50: ADP-Glo, 1000 μM ATP, read-out: CDK9-CYCLINT1, IC50; for CDK2 Fold selectivity, CDK9: CDK2 versus CDK9
Chain of CDK9-CYCLIN T1 (P50750 whole entry): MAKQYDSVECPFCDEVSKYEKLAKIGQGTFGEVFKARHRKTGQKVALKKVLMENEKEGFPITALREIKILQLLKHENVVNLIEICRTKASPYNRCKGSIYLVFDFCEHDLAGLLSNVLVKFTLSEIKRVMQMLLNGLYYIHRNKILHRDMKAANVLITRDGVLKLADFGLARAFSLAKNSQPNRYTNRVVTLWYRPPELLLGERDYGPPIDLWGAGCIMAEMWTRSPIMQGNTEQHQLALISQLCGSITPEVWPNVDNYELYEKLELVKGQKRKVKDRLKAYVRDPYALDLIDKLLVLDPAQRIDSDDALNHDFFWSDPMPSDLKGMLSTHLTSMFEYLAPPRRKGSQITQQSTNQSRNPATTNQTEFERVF
Chain of CDK9-CYCLIN T1 (O60563 whole entry partner): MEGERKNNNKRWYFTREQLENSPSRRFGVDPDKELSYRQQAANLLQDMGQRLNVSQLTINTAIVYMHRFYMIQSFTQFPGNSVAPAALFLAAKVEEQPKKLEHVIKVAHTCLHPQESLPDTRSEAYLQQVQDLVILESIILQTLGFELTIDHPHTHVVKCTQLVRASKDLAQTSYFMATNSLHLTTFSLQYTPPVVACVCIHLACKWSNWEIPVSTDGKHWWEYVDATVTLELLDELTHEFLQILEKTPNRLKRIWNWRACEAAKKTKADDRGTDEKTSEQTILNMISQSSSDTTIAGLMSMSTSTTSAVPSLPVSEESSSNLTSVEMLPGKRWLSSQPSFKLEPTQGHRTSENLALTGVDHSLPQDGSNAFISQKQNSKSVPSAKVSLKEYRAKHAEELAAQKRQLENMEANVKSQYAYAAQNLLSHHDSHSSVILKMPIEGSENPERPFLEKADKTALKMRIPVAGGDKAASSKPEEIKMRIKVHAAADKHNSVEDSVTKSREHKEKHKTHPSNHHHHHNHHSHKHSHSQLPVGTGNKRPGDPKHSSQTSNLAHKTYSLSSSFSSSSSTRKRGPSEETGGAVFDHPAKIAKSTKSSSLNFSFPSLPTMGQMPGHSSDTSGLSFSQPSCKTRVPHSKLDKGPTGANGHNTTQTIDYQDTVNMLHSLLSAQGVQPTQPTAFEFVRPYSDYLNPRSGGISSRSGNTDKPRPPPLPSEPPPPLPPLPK
How it was run: as §1

[1] = tested on: Phospho-Rb (Ser807/811) in OVCAR3 cells; assay: Phospho-Rb expression inhibition in OVCAR3 cells quantified by In Cell Western; format: cell-based; conditions: Homo sapiens, OVCAR-3, 24 hours, read-out: OVCAR-3 pRb IC50
How it was run: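 In-cell western: after 24 h compound exposure at 37° C, fixed OVCAR3 cells co-stained for pRb Ser807/811 (800 nm channel) and total Rb (680 nm channel), imaged by LI-COR Odyssey.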

[2] = tested on: CCNE1-amplified OVCAR3 cells; assay: Cell growth inhibition of CCNE1-amplified OVCAR3 cells (CellTiter-Glo); format: cell-based; conditions: Homo sapiens, OVCAR-3, 144 h, 6 days
How it was run: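 Growth read-out was CellTiter-Glo luminescence, taken after 10 min at room temperature at the end of a 6-day compound exposure at 37 °C. Compounds were diluted from DMSO stocks across various concentrations.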

CCNE1-normal SKOV3 cells = assay: Cell growth inhibition of CCNE1-normal SKOV3 cells (CellTiter-Glo); format: cell-based; conditions: Homo sapiens, SK-OV-3, 144 h, 6 days
How it was run: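 Growth was measured by CellTiter-Glo luminescence after 6 days' compound exposure at 37 °C. Cells were plated one day before dosing at 1000 per well in medium with 10% FBS, and compounds were diluted from DMSO stocks.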

Chain of CDK1-CYCLIN B (P06493 whole entry): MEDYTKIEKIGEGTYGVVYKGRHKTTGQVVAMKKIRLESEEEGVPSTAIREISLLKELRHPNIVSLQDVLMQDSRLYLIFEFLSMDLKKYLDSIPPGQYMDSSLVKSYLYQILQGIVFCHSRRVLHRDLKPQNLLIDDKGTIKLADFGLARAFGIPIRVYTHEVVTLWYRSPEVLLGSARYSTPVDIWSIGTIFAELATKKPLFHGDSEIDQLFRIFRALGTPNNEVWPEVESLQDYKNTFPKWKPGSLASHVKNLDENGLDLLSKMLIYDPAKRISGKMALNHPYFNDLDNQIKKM
Chain of CDK1-CYCLIN B (P14635 whole entry partner): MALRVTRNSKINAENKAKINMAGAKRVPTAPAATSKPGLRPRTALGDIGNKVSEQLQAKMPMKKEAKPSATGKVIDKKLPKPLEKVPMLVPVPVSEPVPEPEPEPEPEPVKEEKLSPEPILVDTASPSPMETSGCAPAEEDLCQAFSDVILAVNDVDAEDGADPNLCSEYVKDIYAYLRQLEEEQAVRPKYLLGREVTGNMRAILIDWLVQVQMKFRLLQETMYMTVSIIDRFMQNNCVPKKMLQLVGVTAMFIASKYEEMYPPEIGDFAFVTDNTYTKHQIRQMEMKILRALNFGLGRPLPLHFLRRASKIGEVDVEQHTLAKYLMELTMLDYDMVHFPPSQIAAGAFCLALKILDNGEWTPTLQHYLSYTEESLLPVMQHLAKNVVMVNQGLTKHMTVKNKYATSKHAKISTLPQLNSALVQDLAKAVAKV

Row | Compound | IC50 (CDK1-CYCLIN B; Table 21) | CDK2 Fold selectivity, CDK1 (CDK1-CYCLIN B; Table 22) | IC50 (CDK2-CYCLIN E1; Table 21) | IC50 (CDK4-CYCLIN D1; Table 21) | CDK2 Fold selectivity, CDK4 (CDK4-CYCLIN D1; Table 22) | IC50 (CDK6-CYCLIN D3; Table 21) | CDK2 Fold selectivity, CDK6 (CDK6-CYCLIN D3; Table 22) | IC50 (CDK9-CYCLIN T1; Table 21) | CDK2 Fold selectivity, CDK9 (CDK9-CYCLIN T1; Table 22) | IC50 [1] | IC50 [2] | IC50 (CCNE1-normal SKOV3 cells) | other results
1 | C[C@H]1Oc2cc(ccn2)Nc2cc(n[nH]2)[C@H]2CC[C@H](C2)OC(=O)N[C@H]2C[C@H]1C2 [Compound 144, (1^1S,1^3R,7^1R,7^3R,6R,Z)-6-methyl-2^1H-5,10-dioxa-3,8-diaza-4(4,2)-pyridina-2(3,5)-pyrazola-1(1,3)-cyclopentana-7(1,3)-cyclobutanacyclodecaphan-9-one] | 0.1 to 0.5 µM | E (E, <20) | ≤ 0.01 µM | 0.1 to 0.5 µM | D (D, >20 and ≤50) | 0.1 to 0.5 µM | D (D, >20 and ≤50) | 0.1 to 0.5 µM | C (C, >50 and ≤100) | 0.002 to 0.01 µM | 0.002 to 0.01 µM | 0.25 to 1.25 µM | 
2 | C[C@H]1Oc2cncc(c2)Nc2cc(n[nH]2)[C@H]2CC[C@H](C2)OC(=O)N[C@H]2C[C@H]1C2 [Compound 148, (1^1S,1^3R,7^1R,7^3R,6R,Z)-6-methyl-2^1H-5,10-dioxa-3,8-diaza-4(3,5)-pyridina-2(3,5)-pyrazola-1(1,3)-cyclopentana-7(1,3)-cyclobutanacyclodecaphan-9-one] | 0.01 to 0.05 µM | E (E, <20) | ≤ 0.01 µM | 0.05 to 0.1 µM | E (E, <20) | 0.05 to 0.1 µM | D (D, >20 and ≤50) | 0.1 to 0.5 µM | D (D, >20 and ≤50) | ≤ 0.002 µM | 0.002 to 0.01 µM | 0.25 to 1.25 µM | 
3 | C[C@@H]1Oc2cncc(c2)Nc2cc(n[nH]2)[C@H]2CC[C@H](C2)OC(=O)N[C@H]2C[C@@H]1C2 [Compound 149, (1^1S,1^3R,7^1S,7^3R,6S,Z)-6-methyl-2^1H-5,10-dioxa-3,8-diaza-4(3,5)-pyridina-2(3,5)-pyrazola-1(1,3)-cyclopentana-7(1,3)-cyclobutanacyclodecaphan-9-one] |  |  |  |  |  |  |  |  |  | 0.01 to 0.05 µM | 0.01 to 0.05 µM | > 1.25 µM | IC50 (CDK1-CYCLIN B; Table 23): 0.1 to 0.5 µM; CDK2 Fold selectivity, CDK1 (CDK1-CYCLIN B; Table 24): E (E, <20); IC50 (CDK2-CYCLIN E1; Table 23): 0.01 to 0.05 µM; IC50 (CDK4-CYCLIN D1; Table 23): 0.1 to 0.5 µM; CDK2 Fold selectivity, CDK4 (CDK4-CYCLIN D1; Table 24): E (E, <20); IC50 (CDK6-CYCLIN D3; Table 23): > 0.5 µM; CDK2 Fold selectivity, CDK6 (CDK6-CYCLIN D3; Table 24): D (D, >20 and ≤50); IC50 (CDK9-CYCLIN T1; Table 23): > 0.5 µM; CDK2 Fold selectivity, CDK9 (CDK9-CYCLIN T1; Table 24): C (C, >50 and ≤100)
4 | C[C@@H]1Oc2cncc(c2)Nc2cc(n[nH]2)[C@H]2CC[C@H](C2)OC(=O)N[C@H]2C[C@H]1C2 [Compound 150, (1^1S,1^3R,7^1R,7^3S,6S,Z)-6-methyl-2^1H-5,10-dioxa-3,8-diaza-4(3,5)-pyridina-2(3,5)-pyrazola-1(1,3)-cyclopentana-7(1,3)-cyclobutanacyclodecaphan-9-one] | 0.01 to 0.05 µM | E (E, <20) | ≤ 0.01 µM | 0.1 to 0.5 µM | D (D, >20 and ≤50) | 0.05 to 0.1 µM | D (D, >20 and ≤50) | 0.1 to 0.5 µM | B (B, >100 and ≤500) | 0.002 to 0.01 µM | 0.002 to 0.01 µM | 0.25 to 1.25 µM | 
5 | C[C@H]1CC[C@H](C)Oc2cncc(c2)Nc2cc(n[nH]2)[C@H]2CC[C@H](C2)OC(=O)N1 [Compound 151, (1^1S,1^3R,6S,9S,Z)-6,9-dimethyl-2^1H-5,12-dioxa-3,10-diaza-4(3,5)-pyridina-2(3,5)-pyrazola-1(1,3)-cyclopentanacyclododecaphan-11-one] | ≤ 0.01 µM | E (E, <20) | ≤ 0.01 µM | 0.05 to 0.1 µM | D (D, >20 and ≤50) | 0.05 to 0.1 µM | D (D, >20 and ≤50) | 0.1 to 0.5 µM | D (D, >20 and ≤50) | 0.002 to 0.01 µM | 0.002 to 0.01 µM | 0.25 to 1.25 µM | 
6 | C[C@@H]1CC[C@H](C)Oc2cncc(c2)Nc2cc(n[nH]2)[C@H]2CC[C@H](C2)OC(=O)N1 [Compound 152, (1^1S,1^3R,6S,9R,Z)-6,9-dimethyl-2^1H-5,12-dioxa-3,10-diaza-4(3,5)-pyridina-2(3,5)-pyrazola-1(1,3)-cyclopentanacyclododecaphan-11-one] | 0.01 to 0.05 µM | E (E, <20) | ≤ 0.01 µM | 0.05 to 0.1 µM | D (D, >20 and ≤50) | 0.05 to 0.1 µM | E (E, <20) | 0.1 to 0.5 µM | D (D, >20 and ≤50) | 0.002 to 0.01 µM | 0.01 to 0.05 µM | 0.25 to 1.25 µM | 
7 | C[C@H]1CCCNC(=O)O[C@@H]2CC[C@@H](C2)c2cc([nH]n2)Nc2cnnc(c2)O1 [Compound 155, (1^1S,1^3R,6S,Z)-6-methyl-2^1H-5,12-dioxa-3,10-diaza-4(5,3)-pyridazina-2(3,5)-pyrazola-1(1,3)-cyclopentanacyclododecaphan-11-one] |  |  |  |  |  |  |  |  |  | 0.01 to 0.05 µM | 0.05 to 0.25 µM | > 1.25 µM | IC50 (CDK1-CYCLIN B; Table 25): 0.01 to 0.05 µM; CDK2 Fold selectivity, CDK1 (CDK1-CYCLIN B; Table 26): E (E, <20); IC50 (CDK2-CYCLIN E1; Table 25): ≤ 0.01 µM; IC50 (CDK4-CYCLIN D1; Table 25): 0.1 to 0.5 µM; CDK2 Fold selectivity, CDK4 (CDK4-CYCLIN D1; Table 26): D (D, >20 and ≤50); IC50 (CDK6-CYCLIN D3; Table 25): 0.1 to 0.5 µM; CDK2 Fold selectivity, CDK6 (CDK6-CYCLIN D3; Table 26): D (D, >20 and ≤50); IC50 (CDK9-CYCLIN T1; Table 25): > 0.5 µM; CDK2 Fold selectivity, CDK9 (CDK9-CYCLIN T1; Table 26): B (B, >100 and ≤500)
8 | C[C@H]1CCCNC(=O)O[C@@H]2CC[C@@H](C2)c2cc([nH]n2)Nc2cccc(c2)O1 [Compound 157, (1^1S,1^3R,6S,Z)-6-methyl-2^1H-5,12-dioxa-3,10-diaza-2(3,5)-pyrazola-4(1,3)-benzena-1(1,3)-cyclopentanacyclododecaphan-11-one] | 0.05 to 0.1 µM | E (E, <20) | ≤ 0.01 µM | 0.1 to 0.5 µM | D (D, >20 and ≤50) | 0.1 to 0.5 µM | D (D, >20 and ≤50) | 0.1 to 0.5 µM | C (C, >50 and ≤100) | 0.01 to 0.05 µM | 0.01 to 0.05 µM | 0.25 to 1.25 µM | 
9 | O=C1NCCCO[C@@H](C(F)(F)F)c2cc(ccn2)Nc2cc(n[nH]2)[C@H]2CC[C@H](C2)O1 [Compound 161, (1^1S,1^3R,5R,Z)-5-(trifluoromethyl)-2^1H-6,12-dioxa-3,10-diaza-4(4,2)-pyridina-2(3,5)-pyrazola-1(1,3)-cyclopentanacyclododecaphan-11-one] | ≤ 0.01 µM | E (E, <20) | ≤ 0.01 µM | 0.01 to 0.05 µM | E (E, <20) | 0.01 to 0.05 µM | E (E, <20) | 0.01 to 0.05 µM | E (E, <20) | ≤ 0.002 µM | ≤ 0.002 µM | 0.05 to 0.25 µM | 
